One test deals with HT1080 cells. Nature of the test: Cellular assay: inhibition of 2-HG production in HT1080 cells (LC-MS, 48 hours). It is filed as cell-based. As to conditions: Homo sapiens, HT-1080, 2-HG in media by LC-MS. An outline of the steps: (§1)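 HT1080 or U87MG cells (5000/well, DMEM + 10% FBS) seeded overnight, then exposed to compound (0.2% DMSO final) for 48 h; medium 2-HG measured by LC-MS. Viability read by CellTiter-Glo luminescence at 72 h.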

In the next test the target is IDH1 R132H (Homo sapiens, UniProt O75874, R132H). Nature of the test: In vitro assay for IDH1 R132H inhibitors (NADPH/aKG, resazurin detection). It is filed as biochemical. As to conditions: Table 4B; 0.2 μg/ml IDH1 R132H, 50 minutes at room temperature; read-out: IC50, IDH1 R132H Inhibition. In short, it runs like this:
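Reaction ran 50 min at room temperature in Tris pH 7.5 buffer with 150 mM NaCl, 10 mM MgCl2 and 0.03% BSA. Mix concentrations were 0.2 μg/ml mutant enzyme, 8 uM NADPH and 2 mM aKG. Detection added 30 μM resazurin, with resorufin fluorescence (Ex544/Em590) measured 5 min later.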
A general note: Alamar Blue is a resazurin reagent that responds to reducing activity.

For another test, the system named is U87MG cells. Nature of the test: Cellular assay: inhibition of 2-HG production in U87MG cells (LC-MS, 48 hours). It is filed as cell-based. To be noted: Homo sapiens, U-87 MG, 2-HG in media by LC-MS. An outline of the steps: as §1

A word on the IC50: it is the midpoint of a concentration-inhibition curve.

Sequence of IDH1 R132H (O75874 whole entry R132H): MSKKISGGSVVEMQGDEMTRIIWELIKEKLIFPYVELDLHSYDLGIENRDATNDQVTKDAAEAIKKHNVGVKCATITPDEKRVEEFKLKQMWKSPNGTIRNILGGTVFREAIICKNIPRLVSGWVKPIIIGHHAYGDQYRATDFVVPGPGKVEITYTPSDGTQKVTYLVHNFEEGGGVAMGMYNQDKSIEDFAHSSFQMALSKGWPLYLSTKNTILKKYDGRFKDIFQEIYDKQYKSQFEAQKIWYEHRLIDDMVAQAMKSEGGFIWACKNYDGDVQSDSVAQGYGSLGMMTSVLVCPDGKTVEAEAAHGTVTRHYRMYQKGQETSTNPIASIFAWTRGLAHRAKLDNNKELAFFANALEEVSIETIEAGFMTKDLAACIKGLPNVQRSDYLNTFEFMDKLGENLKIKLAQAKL

In the case of `Cc1ccccc1[C@@H](C(=O)NC1CCCCC1)N(C(=O)[C@H]1CCCN1C(=O)OC(C)(C)C)c1cccc(F)c1` [Compound 340], the values for the IC50 with HT1080 cells, on IDH1 R132H and with U87MG cells were 1 to 5 µM, 0.1 to 1 µM and 0.25 to 1 µM, respectively.

Regarding `COC(=O)N(C)CC(=O)N(c1cccc(F)c1)C(C(=O)NC1CCCCC1)c1ccccc1C` (stereo not drawn) [Compound 341], the IC50 with HT1080 cells was ≤ 0.25 µM; on IDH1 R132H, ≤ 0.1 µM; in the test with U87MG cells it was ≤ 0.25 µM.

In the case of `Cc1ccccc1C(C(=O)NC1CCC(F)(F)CC1)N(C(=O)CNc1ncccc1F)c1cccc(F)c1` (stereo not drawn) [Compound 342], the IC50 in the test on HT1080 cells was in the range of 0.25 to 1 µM; at IDH1 R132H, 0.1 to 1 µM; with U87MG cells, 0.25 to 1 µM.

For `Cc1ccccc1C(C(=O)NC1CCCCC1)N(C(=O)Cn1ccnc1C(F)(F)F)c1cccc(F)c1` (stereo not drawn) [Compound 344], the values for the IC50 in the test with HT1080 cells, at IDH1 R132H and in the test with U87MG cells were 0.25 to 1 µM, 0.1 to 1 µM and ≤ 0.25 µM, respectively.

On to `CCOC(=O)N1CCCC[C@@H]1C(=O)N(c1cccc(F)c1)[C@H](C(=O)NC1CCCCC1)c1ccccc1C` [Compound 345], for which the IC50 in the test with HT1080 cells lay within 1 to 5 µM; at IDH1 R132H, 0.1 to 1 µM; in the test with U87MG cells it was 1 to 5 µM.

Take `Cc1ccccc1[C@@H](C(=O)NC1CCCCC1)N(C(=O)[C@H]1CCCCN1S(C)(=O)=O)c1cccc(F)c1` [Compound 346]: the figures for the IC50 in the test on HT1080 cells, on IDH1 R132H and with U87MG cells were 0.25 to 1 µM, 0.1 to 1 µM and 0.25 to 1 µM, respectively.

`CCC(=O)N1CCCC[C@@H]1C(=O)N(c1cccc(F)c1)[C@H](C(=O)NC1CCCCC1)c1ccccc1C` [Compound 347]: the IC50 lay within 1 to 5 µM with HT1080 cells, 0.1 to 1 µM at IDH1 R132H and 1 to 5 µM in the test with U87MG cells.

As for `[2H]C1([2H])C([2H])([2H])C([2H])([2H])C([2H])(NC(=O)C(c2ccccc2C)N(C(=O)COc2ccccn2)c2cccc(F)c2)C([2H])([2H])C1([2H])[2H]` (stereo not drawn) [Compound 351], the IC50 is ≤ 0.25 µM with HT1080 cells, ≤ 0.1 µM on IDH1 R132H and ≤ 0.25 µM in the test with U87MG cells.

Take `Cc1ccccc1C(C(=O)NC1CC2CC2C1)N(C(=O)COc1ccccn1)c1cccc(F)c1` (stereo not drawn) [Compound 354]: the IC50 fell in the range of 0.25 to 1 µM with HT1080 cells, 0.1 to 1 µM on IDH1 R132H and 0.25 to 1 µM in the test on U87MG cells.

As to `COC(=O)N1CCC[C@H]1C(=O)N(c1cccc(F)c1)[C@H](C(=O)NC1CCCCC1)c1ccccc1C` [Compound 356], the IC50 was ≤ 0.25 µM in the test on HT1080 cells, ≤ 0.1 µM at IDH1 R132H and ≤ 0.25 µM in the test on U87MG cells.

`COC(=O)NCC(=O)N(c1ccccc1F)C(C(=O)NC1CCCCC1)c1ccccc1C` (stereo not drawn) [Compound 357]: the IC50 was 0.25 to 1 µM with HT1080 cells, 0.1 to 1 µM at IDH1 R132H and 0.25 to 1 µM with U87MG cells.

As for `CCOC(=O)N1CCC[C@H]1C(=O)N(c1cccc(F)c1)[C@H](C(=O)NC1CCCCC1)c1ccccc1C` [Compound 359], the IC50 in the test with HT1080 cells was 0.25 to 1 µM; at IDH1 R132H, ≤ 0.1 µM; in the test with U87MG cells it was ≤ 0.25 µM.

Consider `[2H]C1([2H])C([2H])([2H])C([2H])([2H])C([2H])(NC(=O)C(c2ccccc2C)N(C(=O)CNc2ncccc2F)c2cccc(F)c2)C([2H])([2H])C1([2H])[2H]` (stereo not drawn) [Compound 361], for which the values for the IC50 with HT1080 cells, on IDH1 R132H and with U87MG cells were ≤ 0.25 µM, ≤ 0.1 µM and ≤ 0.25 µM, respectively.

As to `Cc1ccccc1[C@@H](C(=O)NC1CCCCC1)N(C(=O)[C@H]1CCCN1S(C)(=O)=O)c1cccc(F)c1` [Compound 363], the IC50 with HT1080 cells fell in the range of 1 to 5 µM; on IDH1 R132H, 0.1 to 1 µM; in the test with U87MG cells, 0.25 to 1 µM.

With `CC(=O)N1CCC[C@H]1C(=O)N(c1cccc(F)c1)[C@H](C(=O)NC1CCCCC1)c1ccccc1C` [Compound 370], the IC50 in the test with HT1080 cells was in the range of 1 to 5 µM; on IDH1 R132H, 0.1 to 1 µM; with U87MG cells it was 0.25 to 1 µM.

With `Cc1ccccc1C(C(=O)NC1CCC(F)(F)CC1)N(C(=O)Cn1ccnc1C(F)(F)F)c1cccc(F)c1` (stereo not drawn) [Compound 373], the half-maximal inhibitory concentration (IC50) in the test on HT1080 cells fell in the range of 0.25 to 1 µM; at IDH1 R132H it was 0.1 to 1 µM; with U87MG cells, 0.25 to 1 µM.

On to `COC(=O)NCCC(=O)N(c1cccc(F)c1)C(C(=O)NC1CCCCC1)c1ccccc1C` (stereo not drawn) [Compound 374], for which the 50% inhibitory concentration (IC50) in the test with HT1080 cells was 1 to 5 µM; at IDH1 R132H it was 0.1 to 1 µM; in the test on U87MG cells, 1 to 5 µM.

Regarding `Cc1ccccc1C(C(=O)NC1CCC(F)(F)CC1)N(C(=O)CNc1cccnc1F)c1cccc(F)c1` (stereo not drawn) [Compound 378], the results for the IC50 in the test on HT1080 cells, on IDH1 R132H and with U87MG cells were 0.25 to 1 µM, ≤ 0.1 µM and 0.25 to 1 µM, respectively.

Regarding `Cc1ccccc1C(C(=O)NC1CC(F)(F)C1)N(C(=O)CNc1ncccc1F)c1cccc(F)c1` (stereo not drawn) [Compound 379], the IC50 lay in the range of 0.25 to 1 µM in the test with HT1080 cells, 0.1 to 1 µM at IDH1 R132H and 0.25 to 1 µM in the test on U87MG cells.

`Cc1ccccc1C(C(=O)NC1CC(F)(F)C1)N(C(=O)Cn1ccnc1C)c1cccc(F)c1` (stereo not drawn) [Compound 380]: the IC50 in the test on HT1080 cells is 1 to 5 µM; at IDH1 R132H, 0.1 to 1 µM; in the test on U87MG cells it was ≤ 0.25 µM.

Turning to `Cc1ccccc1C(C(=O)NC1CC(F)(F)C1)N(C(=O)CNc1cccnc1F)c1cccc(F)c1` (stereo not drawn) [Compound 381], the IC50 with HT1080 cells was ≤ 0.25 µM; at IDH1 R132H, ≤ 0.1 µM; in the test with U87MG cells it was ≤ 0.25 µM.

On to `Cc1ccccc1C(C(=O)NC1CCCCC1)N(Cc1cccs1)C(=O)Oc1ccccc1` (stereo not drawn) [Compound 387], for which the figures for the IC50 in the test on HT1080 cells, at IDH1 R132H and in the test with U87MG cells were 1 to 5 µM, 1 to 10 µM and > 5 µM, respectively.

With `Cc1cnccc1NC(=O)N(Cc1cccs1)C(C(=O)NC1CCCCC1)c1ccccc1C` (stereo not drawn) [Compound 389], the values for the IC50 with HT1080 cells, at IDH1 R132H and in the test with U87MG cells were 1 to 5 µM, 0.1 to 1 µM and 1 to 5 µM, respectively.

For the origin of these results see patent US20130184222A1, “[…] ACTIVE COMPOSITIONS AND THEIR METHODS OF USE” (AGIOS PHARMACEUTICALS, INC, priority 2010, published 2013).
